# Assay results reported in US8765669B2, “Glycosylated GLP-1 peptide” (Glytech, Inc., priority 2008, dated 2014).
# Biological target: T1, DPP-IV (dipeptidyl peptidase IV from porcine kidney) (Sus scrofa, UniProt P22411)
# T1 construct: dipeptidyl peptidase IV from porcine kidney, product of SIGMA; purchased SIGMA; host or cells: porcine kidney (tissue-derived enzyme)
# Experiment: Test of resistance to dipeptidyl peptidase IV (DPP-IV)
# Assay type: in vitro ADME
# Settings: half-life (t1/2) in DPP-IV solution at 37° C., GLP-1 of Comparative Example 1 defined as standard (=1)
# Method: Each solution mixture was adjusted with 100 mM sodium phosphate buffer to 100 μl in total and allowed to react at 37° C. A 10 μaliquot of the reaction solution was mixed with 15 μl of 10% trifluoroacetic acid prepared in advance in another Eppendorf tube.
# T1 sequence (P22411 whole entry): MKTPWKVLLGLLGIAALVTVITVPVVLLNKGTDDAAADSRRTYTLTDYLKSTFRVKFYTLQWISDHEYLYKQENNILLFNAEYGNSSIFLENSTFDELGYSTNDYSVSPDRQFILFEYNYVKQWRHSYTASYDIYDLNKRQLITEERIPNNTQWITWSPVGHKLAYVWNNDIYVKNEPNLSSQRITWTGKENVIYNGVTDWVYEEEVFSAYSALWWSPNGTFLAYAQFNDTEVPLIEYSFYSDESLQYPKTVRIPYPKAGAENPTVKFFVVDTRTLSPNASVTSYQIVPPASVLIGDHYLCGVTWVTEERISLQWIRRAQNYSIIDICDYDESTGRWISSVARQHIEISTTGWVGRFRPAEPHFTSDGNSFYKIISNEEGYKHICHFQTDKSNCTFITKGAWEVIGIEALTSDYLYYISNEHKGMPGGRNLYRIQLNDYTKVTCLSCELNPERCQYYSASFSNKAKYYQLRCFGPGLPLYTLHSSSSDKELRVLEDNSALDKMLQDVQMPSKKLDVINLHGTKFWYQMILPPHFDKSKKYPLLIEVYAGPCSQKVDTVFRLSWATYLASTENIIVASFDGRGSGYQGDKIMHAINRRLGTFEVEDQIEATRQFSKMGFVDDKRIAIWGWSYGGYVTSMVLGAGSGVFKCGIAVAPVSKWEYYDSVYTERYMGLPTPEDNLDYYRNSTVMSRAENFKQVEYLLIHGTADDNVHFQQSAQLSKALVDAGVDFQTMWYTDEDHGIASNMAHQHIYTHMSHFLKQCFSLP
row,Structure (SMILES),Relative Resistance
1,"CC[C@H](C)[C@H](NC(=O)[C@H](Cc1ccccc1)NC(=O)[C@H](CCC(=O)O)NC(=O)[C@H](CCCCN)NC(=O)[C@H](C)NC(=O)[C@H](C)NC(=O)[C@H](CCC(N)=O)NC(=O)CNC(=O)[C@H](CCC(=O)O)NC(=O)[C@H](CC(C)C)NC(=O)[C@H](Cc1ccc(O)cc1)NC(=O)[C@H](CO)NC(=O)[C@H](CO)NC(=O)[C@@H](NC(=O)[C@H](CC(=O)O)NC(=O)[C@H](CO)NC(=O)[C@@H](NC(=O)[C@H](Cc1ccccc1)NC(=O)[C@@H](NC(=O)CNC(=O)[C@H](CCC(=O)O)NC(=O)[C@H](C)NC(=O)[C@@H](N)Cc1c[nH]cn1)[C@@H](C)O)[C@@H](C)O)C(C)C)C(=O)N[C@@H](CSCC(=O)N[C@@H]1O[C@H](CO)[C@@H](O)[C@H](O[C@@H]2O[C@H](C(=O)O)[C@@H](O[C@@H]3O[C@H](CO)[C@@H](O)[C@H](O[C@@H]4O[C@H](C(=O)O)[C@@H](O[C@@H]5O[C@H](CO)[C@@H](O)[C@H](O[C@@H]6O[C@H](C(=O)O)[C@@H](O[C@@H]7O[C@H](CO)[C@@H](O)[C@H](O[C@@H]8O[C@H](C(=O)O)[C@@H](O)[C@H](O)[C@H]8O)[C@H]7NC(C)=O)[C@H](O)[C@H]6O)[C@H]5NC(C)=O)[C@H](O)[C@H]4O)[C@H]3NC(C)=O)[C@H](O)[C@H]2O)[C@H]1NC(C)=O)C(=O)N[C@@H](Cc1c[nH]c2ccccc12)C(=O)N[C@@H](CC(C)C)C(=O)N[C@H](C(=O)N[C@@H](CCCCN)C(=O)NCC(=O)N[C@@H](CCCNC(=N)N)C(=O)NCC(=O)O)C(C)C [Example 7, 30Cys-hyaluronic acid octasaccharide (HA-8) Added GLP-1 Peptide]",3.4
2,"CC[C@H](C)[C@H](NC(=O)[C@H](Cc1ccccc1)NC(=O)[C@H](CCC(=O)O)NC(=O)[C@H](CCCCN)NC(=O)[C@H](C)NC(=O)[C@H](C)NC(=O)[C@H](CCC(N)=O)NC(=O)CNC(=O)[C@H](CCC(=O)O)NC(=O)[C@H](CC(C)C)NC(=O)[C@H](Cc1ccc(O)cc1)NC(=O)[C@H](CO)NC(=O)[C@H](CO)NC(=O)[C@@H](NC(=O)[C@H](CC(=O)O)NC(=O)[C@H](CO)NC(=O)[C@@H](NC(=O)[C@H](Cc1ccccc1)NC(=O)[C@@H](NC(=O)CNC(=O)[C@H](CCC(=O)O)NC(=O)[C@H](C)NC(=O)[C@@H](N)Cc1c[nH]cn1)[C@@H](C)O)[C@@H](C)O)C(C)C)C(=O)N[C@@H](CSCC(=O)N[C@@H]1O[C@H](CO)[C@@H](O)[C@H](O[C@@H]2O[C@H](C(=O)O)[C@@H](O[C@@H]3O[C@H](CO)[C@@H](O)[C@H](O[C@@H]4O[C@H](C(=O)O)[C@@H](O[C@@H]5O[C@H](CO)[C@@H](O)[C@H](O[C@@H]6O[C@H](C(=O)O)[C@@H](O[C@@H]7O[C@H](CO)[C@@H](O)[C@H](O[C@@H]8O[C@H](C(=O)O)[C@@H](O[C@@H]9O[C@H](CO)[C@@H](O)[C@H](O[C@@H]%10O[C@H](C(=O)O)[C@@H](O[C@@H]%11O[C@H](CO)[C@@H](O)[C@H](O[C@@H]%12O[C@H](C(=O)O)[C@@H](O[C@@H]%13O[C@H](CO)[C@@H](O)[C@H](O[C@@H]%14O[C@H](C(=O)O)[C@@H](O[C@@H]%15O[C@H](CO)[C@@H](O)[C@H](O[C@@H]%16O[C@H](C(=O)O)[C@@H](O)[C@H](O)[C@H]%16O)[C@H]%15NC(C)=O)[C@H](O)[C@H]%14O)[C@H]%13NC(C)=O)[C@H](O)[C@H]%12O)[C@H]%11NC(C)=O)[C@H](O)[C@H]%10O)[C@H]9NC(C)=O)[C@H](O)[C@H]8O)[C@H]7NC(C)=O)[C@H](O)[C@H]6O)[C@H]5NC(C)=O)[C@H](O)[C@H]4O)[C@H]3NC(C)=O)[C@H](O)[C@H]2O)[C@H]1NC(C)=O)C(=O)N[C@@H](Cc1c[nH]c2ccccc12)C(=O)N[C@@H](CC(C)C)C(=O)N[C@H](C(=O)N[C@@H](CCCCN)C(=O)NCC(=O)N[C@@H](CCCNC(=N)N)C(=O)NCC(=O)O)C(C)C [Example 10, 30Cys-hyaluronic acid hexadecasaccharide (HA-16) Added GLP-1 Peptide]",3.9
3,"CC[C@H](C)[C@H](NC(=O)[C@H](Cc1ccccc1)NC(=O)[C@H](CCC(=O)O)NC(=O)[C@H](CCCCN)NC(=O)[C@H](C)NC(=O)[C@H](C)NC(=O)[C@H](CCC(N)=O)NC(=O)CNC(=O)[C@H](CCC(=O)O)NC(=O)[C@H](CC(C)C)NC(=O)[C@H](Cc1ccc(O)cc1)NC(=O)[C@H](CO)NC(=O)[C@H](CO)NC(=O)[C@@H](NC(=O)[C@H](CC(=O)O)NC(=O)[C@H](CO)NC(=O)[C@@H](NC(=O)[C@H](Cc1ccccc1)NC(=O)[C@@H](NC(=O)CNC(=O)[C@H](CCC(=O)O)NC(=O)[C@H](C)NC(=O)[C@@H](N)Cc1c[nH]cn1)[C@@H](C)O)[C@@H](C)O)C(C)C)C(=O)N[C@@H](CSCC(=O)N[C@@H]1O[C@H](CO)[C@@H](O)[C@H](O[C@@H]2O[C@H](C(=O)O)[C@@H](O[C@@H]3O[C@H](CO)[C@@H](O)[C@H](O[C@@H]4O[C@H](C(=O)O)[C@@H](O)[C@H](O)[C@H]4O)[C@H]3NC(C)=O)[C@H](O)[C@H]2O)[C@H]1NC(C)=O)C(=O)N[C@@H](Cc1c[nH]c2ccccc12)C(=O)N[C@@H](CC(C)C)C(=O)N[C@H](C(=O)N[C@@H](CCCCN)C(=O)NCC(=O)N[C@@H](CCCNC(=N)N)C(=O)NCC(=O)O)C(C)C [Example 6, 30Cys-hyaluronic acid tetrasaccharide (HA-4) Added GLP-1 Peptide]",2.1
4,"CC[C@H](C)[C@H](NC(=O)[C@H](Cc1ccccc1)NC(=O)[C@H](CCC(=O)O)NC(=O)[C@H](CCCCN)NC(=O)[C@H](C)NC(=O)[C@H](C)NC(=O)[C@H](CCC(N)=O)NC(=O)CNC(=O)[C@H](CCC(=O)O)NC(=O)[C@H](CC(C)C)NC(=O)[C@H](Cc1ccc(O)cc1)NC(=O)[C@H](CO)NC(=O)[C@H](CO)NC(=O)[C@@H](NC(=O)[C@H](CC(=O)O)NC(=O)[C@H](CO)NC(=O)[C@@H](NC(=O)[C@H](Cc1ccccc1)NC(=O)[C@@H](NC(=O)CNC(=O)[C@H](CCC(=O)O)NC(=O)[C@H](C)NC(=O)[C@@H](N)Cc1c[nH]cn1)[C@@H](C)O)[C@@H](C)O)C(C)C)C(=O)N[C@@H](C)C(=O)N[C@@H](Cc1c[nH]c2ccccc12)C(=O)N[C@@H](CC(C)C)C(=O)N[C@H](C(=O)N[C@@H](CCCCN)C(=O)NCC(=O)N[C@@H](CSCC(=O)N[C@@H]1O[C@H](CO)[C@@H](O)[C@H](O[C@@H]2O[C@H](C(=O)O)[C@@H](O[C@@H]3O[C@H](CO)[C@@H](O)[C@H](O[C@@H]4O[C@H](C(=O)O)[C@@H](O[C@@H]5O[C@H](CO)[C@@H](O)[C@H](O[C@@H]6O[C@H](C(=O)O)[C@@H](O[C@@H]7O[C@H](CO)[C@@H](O)[C@H](O[C@@H]8O[C@H](C(=O)O)[C@@H](O[C@@H]9O[C@H](CO)[C@@H](O)[C@H](O[C@@H]%10O[C@H](C(=O)O)[C@@H](O[C@@H]%11O[C@H](CO)[C@@H](O)[C@H](O[C@@H]%12O[C@H](C(=O)O)[C@@H](O[C@@H]%13O[C@H](CO)[C@@H](O)[C@H](O[C@@H]%14O[C@H](C(=O)O)[C@@H](O[C@@H]%15O[C@H](CO)[C@@H](O)[C@H](O[C@@H]%16O[C@H](C(=O)O)[C@@H](O)[C@H](O)[C@H]%16O)[C@H]%15NC(C)=O)[C@H](O)[C@H]%14O)[C@H]%13NC(C)=O)[C@H](O)[C@H]%12O)[C@H]%11NC(C)=O)[C@H](O)[C@H]%10O)[C@H]9NC(C)=O)[C@H](O)[C@H]8O)[C@H]7NC(C)=O)[C@H](O)[C@H]6O)[C@H]5NC(C)=O)[C@H](O)[C@H]4O)[C@H]3NC(C)=O)[C@H](O)[C@H]2O)[C@H]1NC(C)=O)C(=O)NCC(=O)O)C(C)C [Example 11, 36Cys-hyaluronic acid hexadecasaccharide (HA-16) Added GLP-1 Peptide]",3
